Experimental data taken from US5455351A, “Retroviral protease inhibiting piperazine compounds” (Abbott Laboratories, priority 1993, dated 1995).

Experiments:
HIV-1 protease = target: T1, HIV-1 protease (HIV-1 M:B_HXB2R, UniProt P04585); experiment: Fluorogenic Assay for Screening Inhibitors of HIV Protease; type: biochemical; details: inhibitor concentration 0.5 nanomolar; pH 4.5; 30° C.; 1.3 μM fluorogenic substrate; read-out: Percent Inhibition
T1 construct: fluorogenic DABCYL/EDANS peptide substrate
Protocol: The inhibitory potency of the compounds of the invention can be determined by the following method.
A compound of the invention is dissolved in DMSO and a small aliquot further diluted with DMSO to 100 times the final concentration desired for testing. The reaction is carried out in a 6×50 mm tube in a total volume of 300 microliters. The final concentrations of the components in the reaction buffer are: 125 mM sodium acetate, 1 M sodium chloride, 5 mM dithiothreitol, 0.5 mg/ml bovine serum albumin, 1.3 μM fluorogenic substrate, 2% (v/v) dimethylsulfoxide, pH 4.5. After addition of inhibitor, the reaction mixture is placed in the fluorometer cell holder and incubated at 30° C. for several minutes. The reaction is initiated by the addition of a small aliquot of cold HIV protease. The fluorescence intensity (excitation 340 nm, emmision 490 nM) is recorded as a function of time. The reaction rate is determined for the first six to eight minutes. The observed rate is directly proportional to the moles of substrate cleaved per unit time. The percent inhibition is 100 X (1 -(rate in presence of inhibitor)/(rate in absence of inhibitor)).
Fluorogenic substrate: DabcyI-Ser-GIn-Asn-Tyr-Pro-Ile-VaI-GIn-EDANS wherein DABCYL=4-(4-dimethylamino-phenyl)azobenzoic acid and EDANS=5-((2-aminoethyl)amino)-naphthalene-1-sulfonic acid.

HIV-13B = experiment: Antiviral activity: inhibition of the cytopathic effect of HIV in MT4 cells; type: cell-based; details: Human immunodeficiency virus 1; HIV-13B in MT4 cells; read-out: IC50 (concentration of compound that gives 50% inhibition of the cytopathic effect of HIV)
Excerpt: (§1) The anti-HIV activity of the compounds of the invention can be determined in MT4 cells according to the procedure of Kempf, et. al. (Antimicrob. Agents Chemother. 1991, 35, 2209). The IC50 is the concentration of compound that gives 50% inhibition of the cytopathic effect of HIV. The LC50 is the concentration of compound at which 50% of the cells remain viable.

[1] = Viability (LC50) of MT4 cells; type: cell-based; details: human, read-out: LC50 (concentration of compound at which 50% of the cells remain viable)
Excerpt: as §1

inhibition at 0.0005 µM (HIV-1 protease): 61%
IC50 (HIV-13B): 16 nM
Structure (SMILES): CC(C)(C)NC(=O)[C@@H]1CN(Cc2cncs2)CCN1C[C@@H](O)C[C@@H](Cc1ccccc1)C(=O)N[C@H]1c2ccccc2C[C@H]1O [Example 1R, (1S,2R,2'R,4'S,2"S)-1-((2-Benzyl-5-(((2-(t-butyl)amino)carbonyl)-4-((thiazol-5-yl)methyl)piperazin-1-yl)-4-hydroxypentanoyl)amino)indan-2-ol]
CC50 [1]: > 100000 nM
